Counter-ions that a name gives are not always drawn.
Tests used:
[1] = Water uptake by thermogravimetry after exposure to relative humidity; assay type: physicochemical; settings: 80% rh during 24 hours
Description: Mesylate salt: 4-(2-(2-(benzo[b]thiophen-3-yl)-9-isopropyl-9H-purin-6-ylamino)ethyl)phenol free base (0.60 g; 1.40 mmoles) are dissolved in 12 ml acetone at 50° C. Methanesulfonic acid (0.137 g; 1.40 mmoles) is added drop wise. The crystallization takes place rapidly. The white suspension is allowed to cool over about 30 minutes with cooling to room temperature. The slurry is stirred for 18 hours at room temperature and filtered. The solid is washed with acetone (6 ml) in three portions and dried first for about 3 hours at 50° C./ca. 10 mbar and then for about 16 hours at 80° C./ca. 10 mbar. […] The water uptake was estimated by thermogravimetry after exposure to relative humidity (80% rh) during 24 hours. A water uptake of 0.4% was observed.

mPB-derived CD34+ cell = experiment: 7 day culture with AHR antagonists, expansion of CD34+ cells; assay type: cell-based, human; settings: 7 days
Description: To further explore the role of AHR signaling in HSCs two other AHR antagonists (alpha-naphthoflavone and CH-223191) were tested. Both compounds lead to dose dependent increases in the number of CD34^+ cells when cultured with mPB-derived CD34^+ cell for 7 days: inclusion of 1 μM CH223191 afforded a 2.2-fold expansion of CD34^+ cells; 0.75 μM α-naphthoflavone afforded a 1.9-fold expansion of CD34^+ cells while 0.75 μM Example 1 afforded a 3.4-fold expansion of total CD34^+ cells. […] Forty-eight hours following transduction, CD34+GFP^+ cells were purified by cell sorting and the levels of AHR were determined by qPCR. Both AHR targeting shRNAs led to decreases in AHR expression following transduction (81% with sh111 and 51% with sh242). These decreases were not seen in cells lacking GFP or in cells transduced with control virus.

[2] = system: Primary adult CD34+ human hematopoietic stem cells (HSCs); experiment: % CD34+ assay: HSC expansion screen, dose response; assay type: cell-based; settings: for EC50: Homo sapiens, Hematopoietic stem cell, dose response 1 nM to 10 μM, total number and/or percent of CD34+ cells
Description: Primary adult CD34^+ human hematopoietic stem cells (HSCs) are cultured and screened to identify compounds of the invention that facilitate HSC expansion. The cells are analyzed for the presence of the desired phenotype (CD34 expression). Compounds of the invention promote HSC expansion in a dose dependent manner.
Culture Medium: StemSpan SFEM medium is serum-free medium (StemCell Technologies, Vancouver, BC) supplemented with the following human recombinant cytokines: thrombopoietin, interleukin-6, Flt-3 ligand, and stem cell factor (all from R&D Systems, Minneapolis, Minn.), each at a final concentration of 50 ng/mL, with vehicle (DMSO) or a compound of the invention.
Human Cell Culture: Fresh human leukophoresed G-CSF mobilized peripheral blood from normal donors, CD34^+ cells from adult bone marrow and cryopreserved human cord blood CD34^+ cells are purchased from AllCells (Berkeley, Calif.). Human CD34^+ cells are enriched from leukophoresed G-CSF mobilized peripheral blood using magnetic cell sorting (MACS, Direct CD34 Progenitor Cell Isolation Kit, Miltenyi Biotec, Bergisch Gladbach, Germany) and cryopreserved. CD34^+ cell purity, checked by flow Cytometry, is higher than 90%. After thawing, the cell viability tested by trypan blue exclusion is higher than 70%. The thawed cells are centrifuged and resuspended with StemSpan medium before being aliquoted for immediate culture. Cells are plated at 10^4 cells/mL in a 384 well plate (Greiner Bio-One, Monroe, N.C.) with 50 μL of medium per well for 7 days. Every 7 days the cells are transferred to larger well plates and fresh medium is added to keep the cell density between 10^4 and 5×10^5 cells/mL. Cells were cultured at 37° C. in 5% CO2. For transplantation, cells were cultured in 75 cm^2 flasks before the cells were transplanted into mice. At a concentration of 1 micromolar, 4-(2-(2-(benzo[b]thiophen-3-yl)-9-isopropyl-9H-purin-6-ylamino)ethyl)phenol (compound 1, table 1; example 1), 4-(2-(2-(benzo[b]thiophen-3-yl)-9-sec-butyl-9H-purin-6-ylamino)ethyl)phenol (compound 2, table 1), and N-(2-(1H-indol-3-yl)ethyl)-2-(benzo[b]thiophen-3-yl)-9-isopropyl-9H-purin-6-amine (compound 9, table 1) each gives rise to a greater than 10-fold increase in the number of CD34^+ CD45RA^− cells derived from 1000 mPB CD34^+ HSCs after 21 days compared to vehicle. Compounds of the invention were assayed in a dose response format (1 nM to 10 μM) to determine the effective concentration that produced the desired effect in 50% of the cells (EC50).

mPB-derived CD34+ cells = experiment: Genome-wide transcriptional profiling; assay type: cell-based, human; settings: 24 hours
Text: The two genes that were the most highly repressed by treatment with Example 1 (cytochrome P450 1B1 [CYP1B1] and the aryl hydrocarbon receptor repressor [AHRR]) are transcriptionally regulated by the aryl hydrocarbon receptor (AHR). Therefore, compounds of the invention could be acting as an antagonist of AHR signaling.

EC50 [2] [nM]	Structure (SMILES)	other results
–	CC(C)n1cnc2c(NCCc3ccc(O)cc3)nc(-c3csc4ccccc34)nc21 [Hydrobromide salt, 4-(2-(2-(benzo[b]thiophen-3-yl)-9-isopropyl-9H-purin-6-ylamino)ethyl)phenol]	water uptake [1]: No water uptake
–	CC(C)n1cnc2c(NCCc3ccc(O)cc3)nc(-c3csc4ccccc34)nc21 [Mesylate salt, 4-(2-(2-(benzo[b]thiophen-3-yl)-9-isopropyl-9H-purin-6-ylamino)ethyl)phenol]	water uptake [1]: 0.4%
–	CC(C)n1cnc2c(NCCc3ccc(O)cc3)nc(-c3csc4ccccc34)nc21 [Tosylate salt, 4-(2-(2-(benzo[b]thiophen-3-yl)-9-isopropyl-9H-purin-6-ylamino)ethyl)phenol]	water uptake [1]: 0.4%
–	CC(C)n1cnc2c(NCCc3ccc(O)cc3)nc(-c3csc4ccccc34)nc21 [Hydrochloride salt, 4-(2-(2-(benzo[b]thiophen-3-yl)-9-isopropyl-9H-purin-6-ylamino)ethyl)phenol]	water uptake [1]: 0.3%
–	Cc1ccccc1N=Nc1ccc(NC(=O)c2ccnn2C)c(C)c1 [CH223191, 2-methyl-2H-pyrazole-3-carboxylic acid (2-methyl-4-o-tolylazophenyl)amide]	expansion of CD34+ cells (mPB-derived CD34+ cell; 1 μM): 2.2 fold
–	CC(C)n1cnc2c(NCCc3ccc(O)cc3)nc(-c3csc4ccccc34)nc21 [Hemi-fumarate salt, 4-(2-(2-(benzo[b]thiophen-3-yl)-9-isopropyl-9H-purin-6-ylamino)ethyl)phenol]	water uptake [1]: 0.3%
–	CC(C)n1cnc2c(NCCc3ccc(O)cc3)nc(-c3csc4ccccc34)nc21 [Besylate salt, 4-(2-(2-(benzo[b]thiophen-3-yl)-9-isopropyl-9H-purin-6-ylamino)ethyl)phenol]	water uptake [1]: about 0.05%
–	CC(C)n1cnc2c(NCCc3ccc(O)cc3)nc(-c3csc4ccccc34)nc21 [Orotate salt, 4-(2-(2-(benzo[b]thiophen-3-yl)-9-isopropyl-9H-purin-6-ylamino)ethyl)phenol]	water uptake [1]: 1.7%
–	O=c1cc(-c2ccccc2)oc2c1ccc1ccccc12 [α-naphthoflavone, alpha-naphthoflavone]	expansion of CD34+ cells (mPB-derived CD34+ cell; 0.75 μM): 1.9 fold
–	CC(C)n1cnc2c(NCCc3ccc(O)cc3)nc(-c3csc4ccccc34)nc21 [Napadisylate salt, 4-(2-(2-(benzo[b]thiophen-3-yl)-9-isopropyl-9H-purin-6-ylamino)ethyl)phenol]	water uptake [1]: less than 0.05%
–	CC(C)n1cnc2c(NCCc3ccc(O)cc3)nc(-c3csc4ccccc34)nc21 [Sulfate salt, 4-(2-(2-(benzo[b]thiophen-3-yl)-9-isopropyl-9H-purin-6-ylamino)ethyl)phenol]	water uptake [1]: 0.2%
–	Cc1n[nH]c(C)c1CCCNc1nc(-c2csc3ccccc23)nc2c1ncn2C(C)C [2-(benzo[b]thiophen-3-yl)-N-(3-(3,5-dimethyl-1H-pyrazol-4-yl)propyl)-9-isopropyl-9H-purin-6-amine]	activity relative to example 1 (less active) [2]: ~20 fold; down-regulation of 5 genes (most repressed: CYP1B1, AHRR) (mPB-derived CD34+ cells; 1 μM): none were significantly affected; up-regulation of 5 genes of >50,000 probe sets (mPB-derived CD34+ cells): induced to some degree
1100	Oc1ccc(CCNc2nc(-c3cccnc3)nc3c2ncn3[C@H]2CCOC2)cc1 [Example 93S]	–
8200	CC(C)n1cnc2c(NCCc3n[nH]c4ccccc34)nc(-c3cccnc3)nc21 [Example 98]	–
970	CC(C)n1cnc2c(NCCc3ccc(O)cc3)nc(-c3ccsc3)nc21 [Example 17]	–
4	CCC(C)n1cnc2c(NCCc3c[nH]c4ccccc34)nc(-c3cncc(C)c3)nc21 (centres unmarked) [Example 131]	–
1600	CC(C)n1cnc2c(NCCc3ccc(O)cc3)nc(N3CCCC3)nc21 [Example 38]	–
44	COc1ccc2c(CCNc3nc(-c4cncc(F)c4)nc4c3ncn4C(C)C)c[nH]c2c1 [Example 169]	–
3	CC(C)n1cnc2c(NCCc3c[nH]c4cccc(F)c34)nc(-c3cncc(F)c3)nc21 [Example 195]	–
8	Cc1nccn1-c1nc(NCCc2c[nH]c3ccccc23)c2ncn(C(C)C)c2n1 [Example 184]	–

EC50 [2] [nM]	Structure (SMILES)	other results
–	CC(C)n1cnc2c(NCCc3ccc(O)cc3)nc(-c3csc4ccccc34)nc21 [Esylate salt, 4-(2-(2-(benzo[b]thiophen-3-yl)-9-isopropyl-9H-purin-6-ylamino)ethyl)phenol]	water uptake [1]: 0.05%
92	CC(C)n1cnc2c(NCCc3ccc(O)cc3F)nc(-c3cccnc3)nc21 [Example 147]	–
650	CC(C)n1cnc2c(NCCc3ccc(O)cc3)nc(-c3cncc(S(C)(=O)=O)c3)nc21 [Example 46]	–
29	CC(C)n1cnc2c(NCCc3c[nH]c4ccccc34)nc(-c3cccnc3)nc21 [Example 91]	–
7500	CC(C)n1cnc2c(NCCc3cccnc3)nc(-c3cncc(F)c3)nc21 [Example 166]	–
450	CC(C)n1cnc2c(NCCc3ccc(O)cc3)nc(-c3cccnc3F)nc21 [Example 118]	–
2300	CC(Cc1ccc(O)cc1)Nc1nc(-c2cccnc2)nc2c1ncn2C(C)C (centres unmarked) [Example 95]	–
1100	CC(C)n1ccc2c(NCCc3ccc(O)cc3)nc(-c3csc4ccccc34)nc21 [Example 198]	–
3	CCC(C)n1cnc2c(NCCc3c[nH]c4ccccc34)nc(-n3ccnc3C)nc21 (centres unmarked) [Example 178]	–
290	CC(C)n1cnc2c(NCC(O)c3ccc(O)cc3)nc(-c3cncc(F)c3)nc21 (centres unmarked) [Example 167]	–
400	Cc1cc(O)ccc1CCNc1nc(-c2cccnc2)nc2c1ncn2C(C)C [Example 138]	–
3	CC[C@@H](C)n1cnc2c(NCCc3c[nH]c4ccccc34)nc(-c3cncc(C)c3)nc21 [Example 131R]	–
2600	Cc1n[nH]c(C)c1CCCNc1nc(-c2csc3ccccc23)nc2c1ncn2C(C)C [Example 88]	–
140	Cc1ncn(-c2nc(NCCc3ccc(O)cc3)c3ncn(C(C)C)c3n2)c1C [Example 162]	–
510	CC(C)n1cnc2c(NCCc3ccc(O)cc3)nc(-c3cnccc3Cl)nc21 [Example 48]	–
2400	CC(C)n1cnc2c(NCCc3ccc(O)cc3)nc(-c3cnccn3)nc21 [Example 43]	–
1100	CCN(CC)CCOc1ccc2c(CCNc3nc(-c4cncc(F)c4)nc4c3ncn4C(C)C)c[nH]c2c1 [Example 176]	–
3	CCC(C)n1cnc2c(NCCc3ccc(O)c(C)c3)nc(-c3cncc(C#N)c3)nc21 (centres unmarked) [Example 124]	–
5400	CC(C)n1cnc2c(NCCCc3cn[nH]c3)nc(-c3csc4ccccc34)nc21 [Example 84]	–

From patent US9580426B2, “Compounds that expand hematopoietic stem cells” (Novartis AG, priority 2008, dated 2017)
